The values that follow come from patent US20260083742A1, “HOMOLOGOUS RECOMBINATION REPAIR DEFICIENCY (HRD) AS A PREDICTIVE BIOMARKER FOR TREATING CANCER WITH WEE1 INHIBITORS” (Zeno Management, Inc., priority 2023, published 2026).

Assay [1] deals with HRD+ cells UWB1289, HCC1937, COV362, HCC1569, HCC1395. The assay is described as follows: In vitro cell viability (CellTiter-Glo) in a panel of HRD+ cells. It is filed as cell-based. The conditions noted are these: HRD+ cells both PARP inhibitor-sensitive and PARP inhibitor-resistant, 5 cell doublings. The method, then:
Azenosertib, olaparib and AZD5305 (PARP1-selective inhibitor) were individually tested in vitro in a panel of HRD+ cells as indicated in Table 10. Briefly, cells were seeded in their recommended media at a density of 1,000 cells per well into 96 well plates. After 24 hr, drug treatment was performed and cells were incubated in a 37° C. for 5 cell doublings. Cell viability was measured using CellTiter-Glo (CTG) (Promega) according to the manufacturer's recommendations. Percent viability was calculated as percentage of cell viability relative to DMSO-only vehicle control. Dose-response curves were fit with Graphpad Prism 9 to determine IC50 values.

In assay [2] the test system is SUM149PT TNBC xenograft (BRCA1 splice isoform Δ11q). The assay is described as follows: SUM149PT TNBC xenograft tumor growth inhibition. The class given is in vivo, mice. The protocol: SUM149PT is a TNBC xenograft model harboring a BRCA1 splice isoform (Δ11q) that produces a truncated, partially functional protein which thereby promotes PARP inhibitor resistance. Azenosertib monotherapy and its combination with olaparib or AZD5305 was evaluated in the SUM149PT model in vivo in mice (FIGS. 10A-10B), and Table 12 summarizes the groups and treatments. Single agent treatment with olaparib at 100 mg/kg QD (FIG. 10A) or with the PARP1 selective inhibitor, AZD5305, at 0.1 or 1 mg/kg QD (FIG. 10B) confirmed SUM149PT resistance to PARP inhibitors.

Assay [3] has as its system HGSOC with HRD+ status (BRCA1m). The assay is described as follows: Human subject with HRD+ platinum-resistant, PARP inhibitor-resistant ovarian cancer treated with azenosertib. The class given is in vivo. The note with it: one subject. The method, then:
A subject with HGSOC selected to have HRD+ status (e.g., BRCA1m) confirmed by qualitative next-generation sequencing based in vitro diagnostic test (FoundationOne®CDx) was administered azenosertib in accordance with an intermittent dosing schedule of at least 400 mg azenosertib once a day for five consecutive days, followed by two off days. The subject received azenosertib for five months. The subject is a person who received 7 prior lines of therapy: (1) carboplatin/paclitaxel/bevacizumab/olaparib (PD); (2) Pembrolizumab (PD); (3) NaPi2b targeting-ADC (XMT-1536) (PD); (4) carboplatin/gemcitabine/bevacizumab (PD); (5) Pegylated doxorubicin (PD); (6) Topotecan (PD); (7) PABP-1 RNP (ATRC-101) (PD).

In assay [4] the test system is MDA-MB-436 Ola^R (BRCA reversion) TNBC cell line. Kind of assay: In vitro activity (IC50) in olaparib-resistant MDA-MB-436. The conditions noted are these: Homo sapiens; MDA-MB-436 Ola^R; read-out: In vitro activity (IC50) Olaparib^R (BRCA reversion). The class given is cell-based. The protocol:
(§1) Cells with BRCA reversion mutations may be considered HRD+due to genome instability (such as TAI, LST, LOH). BRCA reversion mutation is an established mechanism of resistance to both platinum-based chemotherapeutic drugs and PARP inhibitors. In vivo exploration of WEE1 inhibitors (azenosertib, adavosertib) and PARP inhibitors (niraparib, olaparib) was evaluated.
(§2) MDA-MB-436 PARP inhibitor-resistant lines were generated by long-term in vitro treatment with a PARP inhibitor that is olaparib (Ola^R) or niraparib (Nir^R).

Assay [5] has as its system uterine serous carcinoma (USC) or high-grade serous ovarian cancer (HGSOC). Kind of assay: Azenosertib in subjects with USC or HGSOC grouped by HRRm status: tumor response and progression free survival. The conditions noted are these: for tumor size change, median: USC population, azenosertib 300 mg or more; for progression free survival: subjects treated with 300+mg azenosertib. The class given is in vivo, human. The method, then:
Subjects with uterine serous carcinoma (USC) or high-grade serous ovarian cancer (HGSOC) were treated with azenosertib and grouped by azenosertib dose of lower than 300 mg (LT300) or at or greater than 300 mg azenosertib (300+mg). […] Total subjects in parenthesis includes all subjects in the study including subjects receiving LT300.
Subjects selected in Table 1 were evaluated for tumor response when treated with doses of 300 mg or more of azenosertib or with lower than 300 mg of azenosertib. In the USC population treated with azenosertib of 300 mg or more (300+), HRRm positivity was associated with better tumor response (p=0.01). (FIG. 1B and FIG. 1C). The HRRm median was −33% and HRR wt median was −5%. […] HRRm subject population was associated with 8.3 months of progression free survival, compared to HRR wt subject population with 4.2 months progression free survival. (FIG. 1D). HRRm status was associated with better progression free survival in subjects treated with at least 300 mg azenosertib, supporting an effective dose of 300 mg or more in HRD subjects.

The subject of assay [6] is parental MDA-MB-436 TNBC cell line. Kind of assay: In vitro activity (IC50) in parental MDA-MB-436. The note with it: Homo sapiens; parental MDA-MB-436; read-out: In vitro activity (IC50) Wild Type. It is filed as cell-based. The protocol: as §1, §2
Assay [7] deals with HBCx-9, HBCx-10 and HBCx-17 triple-negative breast cancer (TNBC) PDX models. The assay is described as follows: Anti-tumor efficacy in TNBC patient-derived xenograft models. It is filed as in vivo, mice. The note with it: HBCx-10 and HBCx-17 (HRD+) vs HBCx-9 (HRD-); azenosertib 60 mg/kg, niraparib 35 mg/kg. The text has this:
Treatments were initiated 28 days post implantation of the tumor cells. The study period ended 28 days after the start of treatment. [table]

The subject of assay [8] is HCC1937 PARP inhibitor-resistant TNBC xenograft. Kind of assay: HCC1937 TNBC xenograft tumor growth inhibition. The class given is in vivo, mice. The method, then: Anti-tumor activity of azenosertib monotherapy or in combination with olaparib was evaluated in the HCC1937 model in vivo in mice (FIG. 9), and Table 11 summarizes the groups and treatments. […] Treatment with monotherapy olaparib at 100 mg/kg QD confirmed HCC1937 resistance to the PARP inhibitor.

Assay [9] deals with MDA-MB-436 olaparib-resistant model. Kind of assay: MDA-MB-436 olaparib-resistant CDX model in vivo. The conditions noted are these: azenosertib 80 mg/kg. An excerpt: MDA-MB-436 PARP inhibitor-resistant lines were generated by long-term in vitro treatment with a PARP inhibitor that is olaparib (Ola^R) or niraparib (Nir^R). Resistant cells were confirmed by sequencing to have BRCA1 reversion mutation. The parental MDA-MB-436 cell line remains sensitive to PARP inhibitors as expected (FIG. 5A), while the Nir^R (FIG. 5B) and Ola^R (FIG. 5C) MDA-MB-436 cell lines are no longer sensitive to PARP inhibitors but are sensitive to azenosertib. Azenosertib activity was further confirmed in the PARP inhibitor-resistant MDA-MB-436 CDX model in vivo. […] WEE1 inhibitor or PARP inhibitor treatment in the Parental TNBC animal model (without PARP inhibitor resistance) is shown in FIG. 5D.

[10] abbreviates: monotherapy azenosertib 60 mg/kg QD 5:2.
Where [11] appears, read: monotherapy azenosertib 80 mg/kg QD 5:2.

Structures are written as SMILES.

In the case of `C=CCn1c(=O)c2cnc(Nc3ccc(N4CCN(C)CC4)cc3)nc2n1-c1ccc2c(n1)[C@@](O)(CC)CC2` [Azenosertib, azenosertib], the “tumor cell growth (dose response curves)” value in assay [1] is given as “reduces tumor cell growth”. The figures for the TGI in [2] (setting [10]), in assay [2] (setting [11]) and in assay [2] (monotherapy azenosertib 100 mg/kg QD 5:2) were 82%, 91% and 101%, respectively. Besides, the “target lesion on scan” value in [3] (after treatment with azenosertib) was “no longer visualized”. In [3] (at least 400 mg azenosertib once a day, five days on, two off, five months, 7 prior lines), the “cPR (confirmed partial response)” value is recorded as −48%. Also, the IC50 stood at 174 nM in [4] and 282 nM in assay [6]. Besides, the entries for the “tumor size change, median” value in assay [5] (HRR wt) and in assay [5] (HRRm) were −5% and −33%, respectively. The progression free survival is 4.2 months in assay [5] (HRR wt) and 8.3 months in [5] (HRRm). Besides, in assay [7], the “tumor growth inhibition in HRD+ models compared to the HRD- model” value is “increased tumor growth inhibition”. Moreover, the tumor growth inhibition in [8] (setting [10]) came to 80%; in assay [8] (setting [11]), 89%. Besides, the “tumor volume compared to the PARP inhibitor” value in assay [9] is given as “significant reduction in tumor volume”.
